Data from US8461328B2, “Tricyclic heterocyclic compounds, compositions and methods of use thereof” (Genentech, Inc., priority 2010, dated 2013).

What was measured:
Format in all cases: biochemical
[1] = biological target: T1, JAK3 (Homo sapiens, UniProt P52333); test: JAK3 inhibition (Table 4); details: read-out: JAK3 Ki
T1 construct: made in house; host or cells: SF9 insect cells (baculovirus)

[2] = biological target: T2, JAK1 (Homo sapiens, UniProt P23458); test: JAK1 inhibition (Table 4); details: read-out: JAK1 Ki
T2 construct: made in house; host or cells: SF9 insect cells (baculovirus)

[3] = biological target: T3, JAK2 (Homo sapiens, UniProt O60674); test: JAK2 inhibition (Table 4); details: read-out: JAK2 Ki
T3 construct: made in house; host or cells: SF9 insect cells (baculovirus)

[4] = biological target: T4, TYK2 (Homo sapiens, UniProt P29597); test: TYK2 inhibition (Table 4)
T4 construct: made in house; host or cells: SF9 insect cells (baculovirus)
T4 sequence (P29597 873-1187): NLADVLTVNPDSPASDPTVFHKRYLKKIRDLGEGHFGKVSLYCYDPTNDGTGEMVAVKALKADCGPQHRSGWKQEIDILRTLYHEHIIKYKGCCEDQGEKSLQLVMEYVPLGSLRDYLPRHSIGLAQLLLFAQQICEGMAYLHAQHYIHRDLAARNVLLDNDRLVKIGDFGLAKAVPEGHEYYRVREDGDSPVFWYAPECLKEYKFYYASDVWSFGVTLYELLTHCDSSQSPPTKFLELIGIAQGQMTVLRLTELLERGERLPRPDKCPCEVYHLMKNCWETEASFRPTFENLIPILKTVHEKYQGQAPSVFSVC

T3 sequence (O60674 812-1132): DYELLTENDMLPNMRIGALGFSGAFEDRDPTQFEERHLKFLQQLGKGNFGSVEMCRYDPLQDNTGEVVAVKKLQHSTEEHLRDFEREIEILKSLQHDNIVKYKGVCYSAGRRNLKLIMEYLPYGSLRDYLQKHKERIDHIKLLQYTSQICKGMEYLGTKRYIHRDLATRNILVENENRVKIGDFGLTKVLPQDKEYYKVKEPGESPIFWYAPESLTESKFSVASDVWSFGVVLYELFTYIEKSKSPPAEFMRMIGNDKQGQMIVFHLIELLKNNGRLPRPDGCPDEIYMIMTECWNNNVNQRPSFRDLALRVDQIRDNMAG
T2 sequence (P23458 852-1154): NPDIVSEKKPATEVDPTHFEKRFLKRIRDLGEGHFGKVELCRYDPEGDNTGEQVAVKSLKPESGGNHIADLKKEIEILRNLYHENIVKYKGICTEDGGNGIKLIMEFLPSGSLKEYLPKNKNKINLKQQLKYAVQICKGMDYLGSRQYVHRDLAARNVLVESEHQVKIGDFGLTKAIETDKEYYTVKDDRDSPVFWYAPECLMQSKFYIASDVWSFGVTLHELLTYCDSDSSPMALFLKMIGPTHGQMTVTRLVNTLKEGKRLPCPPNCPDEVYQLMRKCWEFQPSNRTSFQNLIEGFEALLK
T1 sequence (P52333 783-1124): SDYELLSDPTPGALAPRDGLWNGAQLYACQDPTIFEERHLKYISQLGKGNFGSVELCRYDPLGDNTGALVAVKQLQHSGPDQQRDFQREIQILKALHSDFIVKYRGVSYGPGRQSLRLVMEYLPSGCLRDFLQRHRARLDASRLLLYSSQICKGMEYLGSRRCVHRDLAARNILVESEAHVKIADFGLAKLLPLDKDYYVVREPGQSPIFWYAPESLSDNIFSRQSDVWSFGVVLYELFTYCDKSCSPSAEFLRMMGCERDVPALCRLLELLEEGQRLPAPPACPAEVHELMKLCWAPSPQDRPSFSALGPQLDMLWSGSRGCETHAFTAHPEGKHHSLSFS

Molecule | Ki [1] | Ki [2] | Ki [3] | Ki [4]
Cn1ncc2c1CC[C@@H](n1cnc3cnc4[nH]ccc4c31)C2 [Example 955, 1-((R)-1-Methyl-4,5,6,7-tetrahydro-1H-indazol-5-yl)-1,6-dihydro-1,3,5,6-tetraaza-as-indacene] | 109 nM | 7.67 nM | 8.9 nM | 53.6 nM
CC(C)(O)[C@H]1CC[C@@H](n2cnc3cnc4[nH]ccc4c32)CC1 [Example 957, Cis-2-[4-(6H-1,3,5,6-Tetraaza-as-indacen-1-yl)-cyclohexyl]-propan-2-ol] | 210 nM | 50 nM | 60.2 nM | 174 nM
N#CCCn1ncc2c1CC[C@H](n1cnc3cnc4[nH]ccc4c31)C2 [Example 959, 3-[(S)-5-(6H-1,3,5,6-Tetraaza-as-indacen-1-yl)-4,5,6,7-tetrahydro-indazol-1-yl]-propionitrile] | 86.5 nM | 4.63 nM | 6.3 nM | 38 nM
N#CCCn1ncc2c1CC[C@@H](n1cnc3cnc4[nH]ccc4c31)C2 [Example 992, 3-[(R)-5-(6H-1,3,5,6-Tetraaza-as-indacen-1-yl)-4,5,6,7-tetrahydro-indazol-1-yl]-propionitrile] | 253 nM | 17.8 nM | 37.3 nM | 108 nM
CC1(O)CCC(n2cnc3cnc4[nH]ccc4c32)CC1 (stereo not drawn) [Example 993, Cis-1-Methyl-4-(6H-1,3,5,6-tetraaza-as-indacen-1-yl)-cyclohexanol] | 24.1 nM | 1.67 nM | 4 nM | 7.15 nM
Cc1nc2cnc3[nH]ccc3c2n1C1CCC(C)(O)CC1 (stereo not drawn) [Example 994, Trans-1-Methyl-4-(2-methyl-6H-1,3,5,6-tetraaza-as-indacen-1-yl)-cyclohexanol] | 17 nM | 2.91 nM | 8.02 nM | 25.3 nM
OC1(C2CC2)CCC(n2cnc3cnc4[nH]ccc4c32)CC1 (stereo not drawn) [Example 995, Trans-1-Cyclopropyl-4-(6H-1,3,5,6-tetraaza-as-indacen-1-yl)-cyclohexanol] | 74.1 nM | 6.41 nM | 13.7 nM | 32.1 nM
OC1(C2CC2)CCC(n2cnc3cnc4[nH]ccc4c32)CC1 (stereo not drawn) [Example 996, Cis-1-Cyclopropyl-4-(6H-1,3,5,6-tetraaza-as-indacen-1-yl)-cyclohexanol] | 50.8 nM | 2.01 nM | 3.85 nM | 9.23 nM
C[C@@H](O)c1nc2cnc3[nH]ccc3c2n1C1CCC(CC#N)CC1 (stereo partly drawn) [Example 1001, {4-[2-((R)-1-Hydroxy-ethyl)-6H-1,3,5,6-tetraaza-as-indacen-1-yl]-cyclohexyl}-acetonitrile] | 16.7 nM | 1.15 nM | 13 nM | 2.22 nM
C[C@@H](O)c1nc2cnc3[nH]ccc3c2n1C1CCC(NCC(F)F)CC1 (stereo partly drawn) [Example 1002, (R)-1-{1-[4-(2,2-Difluoro-ethylamino)-cyclohexyl]-1,6-dihydro-1,3,5,6-tetraaza-as-indacen-2-yl}-ethanol] | 111 nM | 0.97 nM | 22.1 nM | 4.76 nM
C[C@@H](O)c1nc2cnc3[nH]ccc3c2n1C1CCC(n2ccnn2)CC1 (stereo partly drawn) [Example 1003, (R)-1-[1-(4-[1,2,3]Triazol-1-yl-cyclohexyl)-1,6-dihydro-1,3,5,6-tetraaza-as-indacen-2-yl]-ethanol] | 129 nM | 5.16 nM | 63.5 nM | 38.2 nM
C[C@@H](O)c1nc2cnc3[nH]ccc3c2n1[C@H]1CC[C@@H](NCC(F)(F)F)C1 [Example 1004, (R)-1-{1-[(1S,3R)-3-(2,2,2-Trifluoro-ethylamino)-cyclopentyl]-1,6-dihydro-1,3,5,6-tetraaza-as-indacen-2-yl}-ethanol] | 44.4 nM | 1.69 nM | 63 nM | 17 nM
C[C@@H](O)c1nc2cnc3[nH]ccc3c2n1[C@H]1CC[C@@H](NCC(F)F)C1 [Example 1005, (R)-1-{1-[(1S,3R)-3-(2,2-Difluoro-ethylamino)-cyclopentyl]-1,6-dihydro-1,3,5,6-tetraaza-as-indacen-2-yl}-ethanol] | 26.3 nM | 2.36 nM | 86.1 nM | 18.1 nM
N#CCCC1CCC(n2c(C(O)CO)nc3cnc4[nH]ccc4c32)CC1 (stereo not shown) [Example 1006, 3-{4-[2-(1,2-Dihydroxy-ethyl)-6H-1,3,5,6-tetraaza-as-indacen-1-yl]-cyclohexyl}-propionitrile] | 11.3 nM | 0.8 nM | 4.49 nM | 3.52 nM
C[C@@H](O)c1nc2cnc3[nH]ccc3c2n1[C@H]1CC[C@H](NCC(F)(F)F)C1 [Example 1008, (R)-1-{1-[(1S,3S)-3-(2,2,2-Trifluoro-ethylamino)-cyclopentyl]-1,6-dihydro-1,3,5,6-tetraaza-as-indacen-2-yl}-ethanol] | 98 nM | 1.72 nM | 23.9 nM | 7.93 nM
C[C@@H](O)c1nc2cnc3[nH]ccc3c2n1C1CCC(NCC(F)(F)F)CC1 (stereo partly drawn) [Example 1009, (R)-1-{1-[4-(2,2,2-Trifluoro-ethylamino)-cyclohexyl]-1,6-dihydro-1,3,5,6-tetraaza-as-indacen-2-yl}-ethanol] | 44 nM | 59.5 nM | 116 nM | 75.5 nM
C[C@@H](O)c1nc2cnc3[nH]cc(Br)c3c2n1C1CCC(CC#N)CC1 (stereo partly drawn) [Example 1010, {4-[8-Bromo-2-((R)-1-hydroxy-ethyl)-6H-1,3,5,6-tetraaza-as-indacen-1-yl]-cyclohexyl}-acetonitrile] | 0.33 nM | 1.12 nM | 1.66 nM | 2.2 nM
C[C@@H](O)c1nc2cnc3[nH]ccc3c2n1[C@H]1COCCC1(F)F [Example 1011, (R)-1-[1-((S)-4,4-Difluoro-tetrahydro-pyran-3-yl)-1,6-dihydro-1,3,5,6-tetraaza-as-indacen-2-yl]-ethanol] | 79.3 nM | 18 nM | 133 nM | 81.7 nM
C[C@@H](O)c1nc2cnc3[nH]ccc3c2n1[C@@H]1COCCC1(F)F [Example 1012, (R)-1-[1-((R)-4,4-Difluoro-tetrahydro-pyran-3-yl)-1,6-dihydro-1,3,5,6-tetraaza-as-indacen-2-yl]-ethanol] | 75.1 nM | 9.43 nM | 103 nM | 45.2 nM
COCCN1CC[C@H](n2c([C@@H](C)O)nc3cnc4[nH]ccc4c32)C(F)(F)C1 [Example 1013, (R)-1-{1-[(S)-3,3-Difluoro-1-(2-methoxy-ethyl)-piperidin-4-yl]-1,6-dihydro-1,3,5,6-tetraaza-as-indacen-2-yl}-ethanol] | 28.9 nM | 2.15 nM | 11.1 nM | 11.3 nM
COCCN1CC[C@@H](n2c([C@@H](C)O)nc3cnc4[nH]ccc4c32)C(F)(F)C1 [Example 1014, (R)-1-{1-[(R)-3,3-Difluoro-1-(2-methoxy-ethyl)-piperidin-4-yl]-1,6-dihydro-1,3,5,6-tetraaza-as-indacen-2-yl}-ethanol] | 4.65 nM | 2.53 nM | 18.6 nM | 45.5 nM
(1-Cyclohexyl-1,6-dihydro-1,2,3,5,6-tetraaza-as-indacen-2-yl)-methanol-d11 [Example 674] | 10.5 nM | 1.13 nM | 7.11 nM | 1.87 nM
(R)-1-{1-[1-(3,5-Dimethyl-1H-pyrazol-4-ylmethyl)-piperidin-4-yl]-1,6-dihydro-1,3,5,6-tetraaza-as-indacen-2-yl}-ethanol [Example 904] | 1040 nM | 211 nM | 1340 nM | 2650 nM
N-tert-Butyl-2-[1-(tetrahydro-pyran-3-yl)-1,6-dihydro-1,3,5,6-tetraaza-as-indacen-2-yl]-acetamide [Example 964] | 164 nM | 78.9 nM | 274 nM | 487 nM
[3-(6H-1,3,5,6-Tetraaza-as-indacen-1-yl)-cyclopentyl]-carbamic acid 2,2,2-trifluoro-ethyl ester [Example 733] | 5.88 nM | 0.77 nM | 4.83 nM | 37.8 nM
